Here are results for 16 molecules from patent publication US9783488B2 (CHDI Foundation, Inc., priority 2013, dated 2017).

In assay [1] the target is human catalytic domain HDAC4 protein (amino acids 648-1032) (Homo sapiens (Human), UniProt P56524). The assay can be described thus: Inhibition of HDAC4 catalytic domain enzymatic activity, fluorogenic substrate Boc-Lys(Tfa)-AMC. Conditions: HDAC4 catalytic domain enzyme, read-out: Biochemical HDAC4 IC50.
For assay [2], the system named is cellular histone deacetylase enzymatic activity in Jurkat E6-1 cells. The assay can be described thus: Inhibition of cellular HDAC activity in Jurkat E6-1 cells, fluorogenic substrate Boc-Lys(Tfa)-AMC. The note with it: Homo sapiens, read-out: Cell IC50. The assay is classed as cell-based. An outline of the steps: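 Jurkat E6.1 cells (75,000/well) were pre-treated with compound for 2 h at 37 °C, then given Boc-Lys(Tfa)-AMC (5× stock 500 μM) for 3 h. Cells were lysed with trypsin-containing buffer overnight, and released AMC fluorescence was read at Ex 355/Em 460 nm over a 16-point dilution series.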

pIC50: −log10 of the molar value.

Chain of human catalytic domain HDAC4 protein (amino acids 648-1032) (P56524 648-1032): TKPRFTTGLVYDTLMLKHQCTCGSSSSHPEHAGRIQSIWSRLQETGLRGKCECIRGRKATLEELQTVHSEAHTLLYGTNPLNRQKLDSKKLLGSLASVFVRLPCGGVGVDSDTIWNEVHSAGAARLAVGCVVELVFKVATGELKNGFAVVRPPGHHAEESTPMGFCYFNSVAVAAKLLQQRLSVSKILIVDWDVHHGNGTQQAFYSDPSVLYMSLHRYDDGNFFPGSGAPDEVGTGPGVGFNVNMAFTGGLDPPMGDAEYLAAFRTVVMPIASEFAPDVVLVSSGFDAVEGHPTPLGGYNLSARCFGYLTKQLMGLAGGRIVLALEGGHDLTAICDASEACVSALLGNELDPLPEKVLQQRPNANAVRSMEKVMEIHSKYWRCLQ

In the case of `Cc1c(F)cccc1[C@]1(C(=O)NO)CC[C@@H](Oc2ccc3cnn(C)c3c2)C1` [Example 91, (1S,3R)-1-(3-Fluoro-2-methylphenyl)-N-hydroxy-3-((1-methyl-1H-indazol-6-yl)oxy)cyclopentanecarboxamide], the pIC50 in assay [1] is 6.54; in assay [2] it was 5.80.
On the same counts, the results for `Cc1c(F)cccc1[C@]1(C(=O)NO)CC[C@H](Oc2ccc3cnn(C)c3c2)C1` [Example 92, (1S,3S)-1-(3-Fluoro-2-methylphenyl)-N-hydroxy-3-((1-methyl-1H-indazol-6-yl)oxy)cyclopentanecarboxamide] are 6.85 and 6.33.
On the same counts, the results for `Cc1c(F)cccc1[C@]1(C(=O)NO)CC[C@@H](Oc2cncc(F)c2)C1` [Example 93, (1S,3R)-1-(3-fluoro-2-methylphenyl)-3-((5-fluoropyridin-3-yl)oxy)-N-hydroxycyclopentanecarboxamide] are 6.70 and 5.72.
Taken in the same sequence, the figures for `Cc1c(F)cccc1[C@]1(C(=O)NO)CC[C@H](Oc2cncc(F)c2)C1` [Example 94, (1S,3S)-1-(3-fluoro-2-methylphenyl)-3-((5-fluoropyridin-3-yl)oxy)-N-hydroxycyclopentanecarboxamide] were 6.80 and 6.08.
As to `Cc1c(F)cccc1[C@]1(C(=O)NO)CC[C@@H](Oc2ccccc2)C1` [Example 95, (1S,3R)-1-(3-fluoro-2-methylphenyl)-N-hydroxy-3-phenoxycyclopentanecarboxamide], the pIC50 in assay [1] was 6.80; in assay [2], 5.82.
On to `Cc1c(F)cccc1[C@]1(C(=O)NO)CC[C@H](Oc2ccccc2)C1` [Example 96, (1S,3S)-1-(3-fluoro-2-methylphenyl)-N-hydroxy-3-phenoxycyclopentanecarboxamide], for which the pIC50 was 6.89 in assay [1] and 6.59 in assay [2].
On the same counts, the results for `Cc1c(F)cccc1[C@]1(C(=O)NO)CC[C@H](OCc2ccc(F)cc2)C1` [Example 97, (1S,3S)-1-(3-fluoro-2-methylphenyl)-3-((4-fluorobenzyl)oxy)-N-hydroxycyclopentanecarboxamide] are 6.62 and 6.18.
Take `O=C(NO)C1(c2ccccc2)CCCCC1` [Example 98, 1-phenyl-N-hydroxycyclohexylcarboxamide]: the pIC50 in assay [1] and in assay [2] was less than 4.30 each time.
Regarding `Cc1c(F)cccc1[C@]1(C(=O)NO)CC[C@H](c2cncc(F)c2)CC1` [Example 99, (1r,4r)-1-(3-fluoro-2-methylphenyl)-4-(5-fluoropyridin-3-yl)-N-hydroxycyclohexanecarboxamide], the pIC50 in assay [1] was 5.39; in assay [2] it was 4.42.
Taken in the same sequence, the figures for `Cc1c(F)cccc1[C@]1(C(=O)NO)CC[C@@H](c2cncc(F)c2)CC1` [Example 100, (1s,4s)-1-(3-Fluoro-2-methylphenyl)-4-(5-fluoropyridin-3-yl)-N-hydroxycyclohexanecarboxamide] were 6.18 and 6.43.
Taken in the same sequence, the figures for `Cc1c(F)cccc1[C@]1(C(=O)NO)CC[C@H](Oc2ccccc2)CC1` [Example 101, (1r,4r)-1-(3-fluoro-2-methylphenyl)-N-hydroxy-4-phenoxycyclohexanecarboxamide] were 6.17 and 6.27.
Take `Cc1c(F)cccc1[C@]1(C(=O)NO)CC[C@@H](OCc2ccc(F)cc2)CC1` [Example 102, (1s,4s)-1-(3-fluoro-2-methylphenyl)-4-((4-fluorobenzyl)oxy)-N-hydroxycyclohexanecarboxamide]: the pIC50 in assay [1] is 4.85; in assay [2], 4.31.
On to `Cc1c(F)cccc1[C@]1(C(=O)NO)CC[C@@H](c2ccc3cnn(C)c3c2)CC1` [Example 103, (1s,4s)-1-(3-fluoro-2-methylphenyl)-N-hydroxy-4-(1-methyl-1H-indazol-6-yl)cyclohexanecarboxamide], for which the results for the pIC50 in assay [1] and in assay [2] were 5.38 and 4.59, respectively.
On the same counts, the results for `Cc1c(F)cccc1[C@]1(C(=O)NO)CC[C@H](c2ccc3cnn(C)c3c2)CC1` [Example 104, (1r,4r)-1-(3-fluoro-2-methylphenyl)-N-hydroxy-4-(1-methyl-1H-indazol-6-yl)cyclohexanecarboxamide] are 6.02 and 6.19.
Taken in the same sequence, the figures for `O=C(NO)C1(c2ccccc2)CCCCCC1` [Example 106, N-hydroxy-1-phenylcycloheptanecarboxamide] were 5.16 and 4.39.
With `Cc1c(F)cccc1C1(C(=O)NO)CCCCCC1` [Example 107, 1-(3-Fluoro-2-methylphenyl)-N-hydroxycycloheptanecarboxamide], the pIC50 in assay [1] and in assay [2] was less than 4.30 in each case.
